Eight compounds from patent US6387891B2, “COMPOUNDS WITH CHELATION AFFINITY AND SELECTIVITY FOR FIRST TRANSITION SERIES ELEMENTS AND THEIR USE IN COSMETICS AND PERSONAL CARE PRODUCTS, INHIBITION OF METALLOENZYMES, AND INHIBITION OF REPERFUSION INJURY” (Concat, Ltd., priority 2000, dated 2002) can be followed below.

Where a name gives a salt, the structure may show the parent alone.

Series [1] concerns BGM cells (a continuous cell line of monkey origin). Briefly: Inhibition of mammalian cell replication in vitro. Type of series: cell-based. As for the experimental part:
Concentrations of this ligand of 0.009 mM/L inhibited the growth of both BGM cells (a continuous cell line of monkey origin) and HFF cells (human foreskin fibroblasts).

Series [2] concerns HFF cells (human foreskin fibroblasts). Put plainly: Inhibition of mammalian cell replication in vitro. Type of series: cell-based.
Series [3] can be described thus: Cytotoxicity study in AIDS antiviral screen (soluble-formazan assay). Type of series: cell-based. To be noted: human, T4 lymphocytes. As for the experimental part:
(§1) The antiviral efficacy of N,N′,N″-tris(5-t-butyl-2-hydroxy-benzyl)-1,4,7-triazacyclononane against the AIDS virus was evaluated employing published methodology (see, “New Soluble-Formazin Assay for HIV-1 Cytopathic Effects: Application to High Flux Screening of Synthetic and Natural Products for AIDS-Antiviral Activity,” J. Natl. Cancer Inst. 81:577-586, 1989).

Series [4] has as its system AIDS virus. Briefly: Inhibition of AIDS virus replication (soluble-formazan assay for HIV-1 cytopathic effects). Type of series: cell-based. The settings on record: Human immunodeficiency virus 1; read-out: EC50 (inhibition of the AIDS Virion). The protocol: as §1
(Protection from cytopathic effect is a common read-out in antiviral testing.)

The test system of series [5] is Enterococcus fecalis. Put plainly: Inhibition of bacterial replication in vitro (MIC). Type of series: cell-based. As for the experimental part: (§2) N,N′,N″-tris(dihydroxyphosphorylmethyl)-1,4,7-triazacyclononane was prepared as described in Example 1C in U.S. Pat. No. 5,236,695. Studies were performed to determine its ability to inhibit bacterial growth. For Streptococcus hemolyticus, Listeria monocytogenes, Enterobacter cloacae and Klebsiella pneumoniae the minimum inhibitory concentration was determined to be 0.15 mM/L. For Enterococcus fecalis, Pseudomonas aeruginosa and Acinobacter anitratus the minimum inhibitory concentration was determined to be 0.3 mM/L.

The test system of series [6] is Listeria monocytogenes. Put plainly: Inhibition of bacterial replication in vitro (MIC). Type of series: cell-based. As for the experimental part:
as §2

Series [7] relates to Pseudomonas aeruginosa. Briefly: Inhibition of bacterial replication in vitro (MIC). The series is classed as cell-based. The protocol: as §2
For series [8], the system named is Streptococcus hemolyticus. Put plainly: Inhibition of bacterial replication in vitro (MIC). The series is classed as cell-based. As for the experimental part: as §2
The subject of series [9] is Enterobacter cloacae. Briefly: Inhibition of bacterial replication in vitro (MIC). Type of series: cell-based. The protocol: as §2
Series [10] has as its system Klebsiella pneumoniae. Put plainly: Inhibition of bacterial replication in vitro (MIC). The series is classed as cell-based. The protocol: as §2
In series [11] the test system is Acinobacter anitratus. Put plainly: Inhibition of bacterial replication in vitro (MIC). The series is classed as cell-based. The protocol:
as §2

Series [12] concerns mature, nonreplicating cultures of HFF (human foreskin fibroblasts). Put plainly: Toxicity toward nonproliferating mammalian cells in vitro. The series is classed as cell-based. The settings on record: 0.3 mM, maintenance media, five-day period of observation.
In series [13] the test system is Trichophyton violaceum. Briefly: Inhibition of mycotic cell replication in vitro (MIC). Type of series: cell-based. The protocol: (§3) N,N′,N″-tris(dihydroxyphosphorylmethyl)-1,4,7-triazacyclononane was prepared as described in Example 1C in U.S. Pat. No. 5,236,695. Studies were performed to determine its ability to inhibit growth of mycotic (fungal) organisms.
(§4) For Microsporum canis the minimum inhibitory concentration was 0.233 mM/L or less. For Candida albicans and Trichophyton rubrum the minimal inhibitory concentration was 2.33 mM/L. For Trichophyton mentagrophytes, Trichophyton tonsuras and Trichophyton violaceum the minimal inhibitory concentration was 23.3 mM/L.

Series [14] has as its system Candida albicans. Described as above. Type of series: cell-based. As for the experimental part:
as §3, §4

Series [15] has as its system Microsporum canis. Described as above. The series is classed as cell-based. The protocol:
as §3, §4

The subject of series [16] is Trichophyton rubrum. The description is as above. The series is classed as cell-based. As for the experimental part: as §3, §4
The subject of series [17] is Trichophyton tonsuras. The description is as above. Type of series: cell-based. The protocol: as §3, §4
Series [18] deals with Trichophyton mentagrophytes. The description is as above. Type of series: cell-based. As for the experimental part:
as §3, §4

The subject of series [19] is Streptococcus Sobrinus. Briefly: Inhibition of cariogenic bacteria (MIC, RPMI medium). Type of series: cell-based. The settings on record: read-out: minimum inhibitory concentration (MIC).
A short description of series [20]: Chemical antioxidant properties, coupled oxidation of carotene and linoleic acid. Type of series: physicochemical. As for the experimental part: Antioxidant properties of N,N′,N″-tri(dihydroxyphosphoryl methyl)-1,4,7-triazacyclononane were evaluated employing the coupled oxidation of carotene and linoleic acid, using the method described in “Phenolic Antioxidants of Dried Soybeans,” Hammerschmidt, P. A., Praat, D. E., 1978, Journal of Food Sciences, vol. 43, pp. 556-559.

The test system of series [21] is Sprague Dawley rats. Put plainly: Subacute toxicity, repeated intravenous doses in rats. Type of series: in vivo. The settings on record: 0.05 millimoles per kg i.v. on 10 days. An excerpt:
Ten male Sprague Dawley rats 29 days old and weighing between 73.4 and 87.8 grams at the beginning of the experiment were randomized, employing the block stratification method, into two groups consisting of five rats each. On each of days 1, 2, 3, 6, 7, 8, 9, 10, 13 and 14 of the experiment one set of rats received an intravenous dose of N,N′,N″-tri(dihydroxyphosphoryl methyl)-1,4,7-triazacyclononane (Example 1C in U.S. Pat. No. 5,236,695) equal to 0.05 millimoles per kg of initial body weight (experimental group) while the other group received an equivalent volume of normal saline solution. The weights of the animals were recorded three times per week and the animals were sacrificed on the 28th day, major organs removed and weighed and tissues removed for microscopic examination.

Series [22] relates to 57 human cancer cell lines. Put plainly: In vitro proliferation of 57 human cancer cell lines. To be noted: cell line groups compared. Type of series: cell-based. As for the experimental part:
The ability of N-methyl-N′,N″-bis(dihydroxyphorylmethyl)-1,4,7-triazacyclononane to inhibit proliferation of 57 human cancer cell lines in vitro was evaluated employing published methods as published in J. Natl. Cancer Inst., 83:757-766, 1991. The concentration of agent that caused 50% inhibition of cell replication relative to controls [Gl50] were determined. In one set of experiments the mean midpoint of Gl50 for all cell lines tested was (10)^−4.72 with a delta value of (10)^2.95 and a range of (10)^3.67.

Series [23] has as its system monocyte. Briefly: Monocyte penetration of Matrigel membranes. The series is classed as cell-based. An excerpt: (§5) Matrix metalloproteinase-2 (MMP-2) secreted by cells into growth media was separated by gel electrophoresis into its distinct band. […] Concentrations of less than 10 microM of sodium salt of N,N′,N″-tri(dihydroxyphosphoryl methyl)-1,4,7-triazacyclononane inhibited monocyte penetration of Matrigel membranes.

The subject of series [24] is underarm odor. Briefly: Inhibition of underarm odor in human subjects. The series is classed as in vivo. An excerpt: Human subjects applied a 30% aqueous solution of the neutral sodium salt of N,N′,N″-tri(dihydroxyphosphoryl methyl)-1,4,7-triazacyclononane in one axilla and a control aqueous solution in the other.
Series [25] concerns the target pure MMP-2 enzyme (Homo sapiens, UniProt P08253). Put plainly: Inhibition of pure MMP-2 enzyme. Type of series: biochemical.
Series [26] can be described thus: Acute intravenous toxicity in mice. Type of series: in vivo. To be noted: mouse, in vivo, 4 mM/kg, intravenous. As for the experimental part: (§6) This example illustrates the low in vivo toxicity of a representative ligand administer intravenously to mice.
(§7) This in vivo LD50 toxicity dose results in an instantaneous in vivo concentration which is orders of magnitude greater than the dose of this agent which inhibits mammalian cell replication in vitro (0.009 mM/L).

For series [27], the system named is mice. Briefly: Acute intravenous toxicity in mice. Type of series: in vivo. To be noted: 4.0 mM/kg single intravenous dose. As for the experimental part:
as §6, §7

Series [28] has as its system isolated working rat heart. Briefly: Ischemic/reperfused isolated working rat heart model. As for the experimental part: Using the ischemic/reperfused isolated working rat heart model of Ferdinandy et al., Cardiovasc. […] Concentrations of this agent as high as 7.2 mM had no adverse effects on the heart either before or after hypoxia/reperfusion injury.
Series [29] concerns the target T1, Matrix metalloproteinase-2 (MMP-2) secreted by cells (Homo sapiens, UniProt P08253).
T1 construct: Matrix metalloproteinase-2 (MMP-2) secreted by cells into growth media; endogenous in cells
Briefly: MMP-2 inhibition after gel electrophoresis, incubation in developing medium. The series is classed as biochemical. The settings on record: MMP-2 band after gel electrophoresis.
From the text: as §5

Chain of pure MMP-2 enzyme (P08253 110-660): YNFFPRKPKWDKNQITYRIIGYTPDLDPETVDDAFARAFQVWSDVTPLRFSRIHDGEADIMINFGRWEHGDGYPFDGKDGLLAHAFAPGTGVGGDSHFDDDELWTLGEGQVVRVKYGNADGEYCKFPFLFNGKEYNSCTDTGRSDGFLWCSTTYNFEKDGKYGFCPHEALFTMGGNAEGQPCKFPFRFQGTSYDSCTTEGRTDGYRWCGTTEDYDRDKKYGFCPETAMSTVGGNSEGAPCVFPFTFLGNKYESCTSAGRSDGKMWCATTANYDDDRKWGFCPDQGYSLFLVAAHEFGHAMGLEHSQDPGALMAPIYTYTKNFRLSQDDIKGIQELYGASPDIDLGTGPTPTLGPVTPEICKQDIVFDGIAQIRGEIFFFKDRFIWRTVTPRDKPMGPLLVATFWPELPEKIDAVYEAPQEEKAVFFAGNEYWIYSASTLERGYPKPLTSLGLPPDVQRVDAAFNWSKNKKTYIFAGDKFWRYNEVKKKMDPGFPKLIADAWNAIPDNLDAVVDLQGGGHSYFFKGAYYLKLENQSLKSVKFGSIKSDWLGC
T1 sequence (P08253 110-660, species assumed): as the sequence (P08253 110-660) above

On to `O=C(O)CN(CCN(CC(=O)O)CC(=O)O)CCN(CC(=O)O)CC(=O)O` [Diethylene triamine penta acetic acid, reference compound], for which the “concentration that inhibited BGM cell growth” value in [1] turned out to be 0.075 mM/L. In series [2], the “concentration that inhibited HFF cell growth” value was 0.3 mM/L.

For the compound `O=C(O)CN1CCN(CC(=O)O)CCN(CC(=O)O)CC1` [Example 1.3.6.1, N,N′,N″-Tris(carboxymethyl)-1,4,7-triazacyclononane], in series [1], the “concentration that inhibited BGM cell growth” value is reported as 0.009 mM/L. For the same compound, the “concentration that inhibited HFF cell growth” value in series [2] worked out at 0.019 mM/L.

As to `CCOC(=O)CN1CCN(CC(=O)OCC)CCN(CC(=O)OCC)CC1` [Example 1.3.6.13, N,N′,N″-Tris(ethoxycarbonylmethyl)-1,4,7-triazacyclononane], the “concentration that inhibited BGM cell growth” value in series [1] came out at 0.04 mM/L. Besides, the “concentration that inhibited HFF cell growth” value in series [2] is 0.16 mM/L.

As usually defined, the IC50 is the point on the concentration scale where inhibition reaches its midpoint. One may read the EC50 as the concentration giving half of the maximal effect. The compound `CC(C)(C)c1ccc(O)c(CN2CCN(Cc3cc(C(C)(C)C)ccc3O)CCN(Cc3cc(C(C)(C)C)ccc3O)CC2)c1` [N,N′,N″-tris(5-t-butyl-2-hydroxy-benzyl)-1,4,7-triazacyclononane] showed a half-maximal inhibitory concentration (IC50) in series [3] of 110 µM. Besides, the EC50 in [4] amounted to 3 µM.

Take `O=P(O)(O)CN1CCN(CP(=O)(O)O)CCN(CP(=O)(O)O)CC1` [N,N′,N″-tris(dihydroxyphosphorylmethyl)-1,4,7-triazacyclononane]: the minimum inhibitory concentration in series [5] came to 0.3 mM/L; in series [6], 0.15 mM/L; in series [7], 0.3 mM/L; in series [8], 0.15 mM/L; in [9] it was 0.15 mM/L; in [10], 0.15 mM/L. Besides, the minimum inhibitory concentration in series [11] was 0.3 mM/L; in series [15], ≤ 0.233 mM/L. Also, the “effect on resting (nonreplicating) HFF cells” value in [12] is given as “no effect on the resting cells was observed”. Besides, the “concentration that inhibited BGM cell growth” value in series [1] was 0.009 mM/L. Also, the “concentration that inhibited HFF cell growth” value in series [2] came to 0.009 mM/L. Also, the minimal inhibitory concentration in [13] was found to be 23.3 mM/L; in [14] it was 2.33 mM/L; in [16], 2.33 mM/L; in [17], 23.3 mM/L; in series [18], 23.3 mM/L. In addition, the MIC in [19] was < 20 µM. In addition, the antioxidant activity entry in series [20] is on record as “antioxidant activity similar to the commonly used food antioxidant butylated hdryoxyanisole (BHA)”. Moreover, the “weight or rate of weight gain vs control” value in [21] (injection and two-week post-injection period) was “no statistically significant difference in weight or rate of weight gain”. Moreover, the “microscopic examination of tissues vs control” value in series [21] (necropsy on 28th day) is recorded as “no differences between the tissues”. In addition, the “weights of major organs vs control” value in series [21] (sacrificed on 28th day) is listed as “no differences observed between the weights of major organs”.

In the case of `CN1CCN(CP(=O)(O)O)CCN(CP(=O)(O)O)CC1` [N-methyl-N′,N″-bis(dihydroxyphorylmethyl)-1,4,7-triazacyclononane], the “relative sensitivity of cancer cell groups” value in series [22] is “leukemia and colon cancer cells were more sensitive to the agent than were other cancer cells”.

The LD50 is the dose at which mortality reaches 50%. Take `O=P(O)(O)CN1CCN(CP(=O)(O)O)CCN(CP(=O)(O)O)CC1` [sodium salt of N,N′,N″-tris-(dihydroxyphosphorylmethyl)-1,4,7-triazacyclononane]: in series [23], the “concentration that inhibited monocyte penetration of Matrigel membranes” value is reported as “less than 10 microM”. For the same compound, the “subjective evaluation of underarm odor” value in [24] (30% aqueous solution in one axilla, control aqueous solution in the other) is “less underarm odor in the treated axilla than in the control”. Besides, the “duration of decreased underarm odor after a single application” value in series [24] (30% aqueous solution, single application) is “up to one week”. Also, the concentration for half-maximal inhibition (IC50) in series [25] is < 10 µM. Also, the LD50 in series [26] is > 4000 µmol/kg. In addition, the “mice surviving for over 14 days” value in [27] was “Over 50%”.

For the compound “salts of N,N′,N″-tri(dihydroxyphosphoryl methyl)-1,4,7-triazacyclononane”, the “concentration with no adverse effects on the heart” value in [28] (before or after hypoxia/reperfusion injury) is ≥ 7200 µM. The “concentration in the perfusing medium effective in improving myocardial functional parameters and decreasing the incidence of ventricular fibrillation” value in series [28] (ischemic/reperfused isolated working rat heart) is on record as ≤ 0.1 mM. Also, in [29], the “concentration that inhibited enzymatic action of MMP-2” value is on record as “less than 10 microM”.
